Test results reported in ChEMBL document CHEMBL5727111, “Pyrrolidinyl urea, pyrrolidinyl thiourea and pyrrolidinyl guanidine compounds as TrkA kinase inhibitors” (2019).

What follows are compounds tested against High affinity nerve growth factor receptor (Homo sapiens, UniProt P04629) (assay: TrkA Omnia Assay: Trk enzymatic selectivity was assessed using Omnia Kinase Assay reagents from Invitrogen Corp. Enzyme (TrkA from Invitrogen Corp.) and test compound (various concentrations) were incubated for 10 minutes at ambient temperature in a 384-well white polypropylene plate (Nunc catalog#267462). Omnia Tyr Peptide #4, as well as ATP, were then added to the plate. Final concentrations were as follows: 20 nM enzyme, 500 μM of ATP, 10 μM peptide substrate. The assay buffer consisted of 25 mM MOPS pH 7.5, 0.005% (v/v) Triton X-100 and 5 mM MgCl2. The production of phosphorylated peptide was monitored continuously for 70 minutes using a Molecular Devices FlexStation II384 microplate reader (excitation=360 nm; emission=485 nm). Initial rates were calculated from the progress curves. IC50 values were calculated from these rates using either a 4 or 5-parameter logistic curve fit.).
Chain of High affinity nerve growth factor receptor (P04629 whole entry): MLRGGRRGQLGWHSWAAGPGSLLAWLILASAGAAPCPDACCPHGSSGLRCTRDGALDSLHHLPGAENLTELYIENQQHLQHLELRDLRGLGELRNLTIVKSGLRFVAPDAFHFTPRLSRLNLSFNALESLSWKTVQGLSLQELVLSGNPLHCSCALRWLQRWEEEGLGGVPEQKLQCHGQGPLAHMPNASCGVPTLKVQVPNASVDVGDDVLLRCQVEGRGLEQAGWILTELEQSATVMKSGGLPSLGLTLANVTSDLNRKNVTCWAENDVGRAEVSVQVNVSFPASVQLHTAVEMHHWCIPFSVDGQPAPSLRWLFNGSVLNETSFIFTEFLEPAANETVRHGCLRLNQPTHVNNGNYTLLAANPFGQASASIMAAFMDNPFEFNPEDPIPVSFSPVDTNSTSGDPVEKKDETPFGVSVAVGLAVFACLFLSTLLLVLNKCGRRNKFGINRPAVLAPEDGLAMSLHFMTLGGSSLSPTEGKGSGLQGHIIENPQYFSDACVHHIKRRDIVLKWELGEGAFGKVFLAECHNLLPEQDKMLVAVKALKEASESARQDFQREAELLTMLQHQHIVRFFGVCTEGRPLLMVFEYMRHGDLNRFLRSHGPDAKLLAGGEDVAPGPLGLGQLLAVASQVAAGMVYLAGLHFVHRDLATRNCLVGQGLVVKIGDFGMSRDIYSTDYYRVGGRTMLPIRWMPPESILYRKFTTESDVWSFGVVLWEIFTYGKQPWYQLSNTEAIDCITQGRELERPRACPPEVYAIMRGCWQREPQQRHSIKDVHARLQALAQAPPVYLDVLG

IC50, < 0.1 µM:
COCCN1C[C@@H](NC(=O)Nc2c(Br)c(C)nn2-c2ccccc2)[C@H](c2ccc(F)cn2)C1 (relative stereo)
COc1ncccc1N1C[C@@H](NC(=O)Nc2c(C)c(-c3cnn(C)c3)nn2-c2ccccc2)[C@H](c2ccccc2)C1
COCCN1C[C@@H](NC(=O)Nc2cc(-c3ccc(C(=O)N(C)C)cc3)nn2C)[C@H](c2ccc(F)c(F)c2)C1
COCCN1C[C@@H](NC(=O)Nc2c(C)c(-c3cnn(C)c3)nn2-c2cccc(Cl)c2)[C@H](c2ccc(F)c(F)c2)C1
COCCN1C[C@@H](NC(=O)Nc2c(C)c(-c3cnn(C)c3)nn2-c2ccc(F)c(Cl)c2)[C@H](c2ccc(F)c(F)c2)C1
CCOc1nn(-c2ccccc2)c(NC(=O)N[C@H]2CN(CC(F)(F)F)C[C@@H]2c2cccc(F)c2)c1C
COCCN1C[C@@H](NC(=O)Nc2c(C)c(-c3cnn(C)c3)nn2-c2ccccc2)[C@H](c2csnn2)C1 (relative stereo)
Cc1c(-c2ccc(=O)n(C)c2)nn(-c2ccccc2)c1NC(=O)N[C@H]1CN(CC(F)(F)F)C[C@@H]1c1ccccc1
Cn1cc(-c2nn(-c3ccccc3)c(NC(=O)N[C@H]3CN(CC(F)(F)F)C[C@@H]3c3ccccc3)c2Cl)cn1
COCCN1C[C@@H](NC(=O)Nc2c(C)c(-c3cnn(C)c3)nn2-c2ccccc2)[C@H](c2ccc(F)cn2)C1 (relative stereo)
COCCN1C[C@@H](NC(=O)Nc2c(C)c(-c3cnn(C)c3)nn2-c2cccc(F)c2)[C@H](c2ccc(F)cc2)C1
COCCN1C[C@@H](NC(=O)Nc2c(C)c(-c3cnn(C)c3)nn2-c2cccc(Cl)c2F)[C@H](c2ccc(F)c(F)c2)C1
COCCN1C[C@@H](NC(=O)Nc2c(C)c(-c3cnn(C)c3)nn2-c2ccccc2)[C@H](c2ccc(C#N)cc2)C1
COCCN1C[C@@H](NC(=O)Nc2c(C)c(-c3cnn(C)c3)nn2-c2ccccc2)[C@H](c2ccccc2)C1
COCCN1C[C@@H](NC(=O)Nc2c(SC)c(C)nn2-c2ccccc2)[C@H](c2ccc(F)c(F)c2)C1
COCCN1C[C@@H](NC(=O)Nc2c(C)c(-c3cnn(C)c3)nn2-c2ccccc2)[C@H](c2cccc(C#N)c2)C1
CCOc1nn(-c2ccccc2)c(NC(=O)N[C@@H]2CN(CCOC)C[C@H]2c2cncc(Cl)c2)c1C (relative stereo)
COCCN1C[C@@H](NC(=O)Nc2c(Cl)c(C)nn2-c2ccccc2)[C@H](c2cc(F)cc(F)c2)C1
COCCN1C[C@@H](NC(=O)Nc2c(Cl)c(-c3cnn(C)c3)nn2-c2ccccc2)[C@H](c2cncc(F)c2)C1
COCCN1C[C@@H](NC(=O)Nc2c(Br)c(C)nn2-c2ccccc2)[C@H](c2cc(F)cc(F)c2)C1
COCCN1C[C@@H](NC(=O)Nc2c(C)c(-c3cnn(C)c3)nn2-c2ccccc2)[C@H](c2ccc(F)c(F)c2)C1
COCCN1C[C@@H](NC(=O)Nc2c(C)c(-c3cnn(C)c3)nn2-c2ccccc2F)[C@H](c2ccc(F)cc2)C1
O=C(Nc1c2c(nn1-c1ccccc1)CCC2)N[C@@H]1CN(CC(F)F)C[C@H]1c1ccc(F)cc1 (relative stereo)
